Laboratory results published in US20220062240A1, “METHODS OF TREATING CANCER USING A CLK INHIBITOR” (BioSplice Therapeutics, Inc., priority 2018, published 2022).
Where two headings read alike, the source gives them in different places.

Columns and labels:
all 50 cell lines = assay: CellTiter-Glo Viability Assay, average across all cell lines; format: cell-based; conditions: Homo sapiens; across all 50 cell lines; read-out: average EC50 for inhibition of cancer cell proliferation
In short: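 Human cancer cell lines from breast, colorectal, haematopoietic/lymphoid, liver, lung, ovarian, pancreatic and prostate tumours were seeded at 300-3,000 cells/well and exposed to compound in duplicate for four days at 37° C, 5% CO2. Viable cells were measured by ATP luminescence; EC50 values came from dose-response curves.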

CLK3 = CLK3 (Homo sapiens, UniProt P49761); assay: CLK3 kinase activity assay (Z-lyte, Ser/Thr 18 peptide)
[1] = test system: ovarian cancer (4 cell lines); assay: CellTiter-Glo Viability Assay, ovarian cancer; format: cell-based; conditions: Homo sapiens, inhibition of cancer cell proliferation
[2] = test system: pancreatic cancer (8 cell lines); assay: CellTiter-Glo Viability Assay, pancreatic cancer; format: cell-based; conditions: Homo sapiens, inhibition of cancer cell proliferation
[3] = test system: prostate cancer (5 cell lines); assay: CellTiter-Glo Viability Assay, prostate cancer; format: cell-based; conditions: Homo sapiens
[4] = test system: liver cancer (3 cell lines); assay: CellTiter-Glo Viability Assay, liver cancer; format: cell-based; conditions: Homo sapiens, inhibition of cancer cell proliferation
ZR-75-1 = assay: CellTiter-Glo Viability Assay, breast cancer; format: cell-based; conditions: Homo sapiens, 96 h; ZR-75-1, breast cancer, four days; read-out: EC50
DU4475 = assay: CellTiter-Glo Viability Assay, breast cancer; format: cell-based; conditions: Homo sapiens, DU-4475, 96 h; DU4475, breast cancer, four days; read-out: EC50
T47D = assay: CellTiter-Glo Viability Assay, breast cancer; format: cell-based; conditions: Homo sapiens, 96 h, breast cancer, four days, read-out: EC50
MCF7 = assay: CellTiter-Glo Viability Assay, breast cancer; format: cell-based; conditions: Homo sapiens, 96 h; MCF7, breast cancer, four days; read-out: EC50
CAMA1 = assay: CellTiter-Glo Viability Assay, breast cancer; format: cell-based; conditions: Homo sapiens, CAMA-1, 96 h; CAMA1, breast cancer, four days; read-out: EC50
MDA-MB-231-Luc = assay: CellTiter-Glo Viability Assay, breast cancer; format: cell-based; conditions: Homo sapiens, 96 h; MDA-MB-231-Luc, breast cancer, four days; read-out: EC50
HCC1599 = assay: CellTiter-Glo Viability Assay, breast cancer; format: cell-based; conditions: Homo sapiens, 96 h; HCC1599, breast cancer, four days; read-out: EC50
BT-549 = assay: CellTiter-Glo Viability Assay, breast cancer; format: cell-based; conditions: Homo sapiens, 96 h; BT-549, breast cancer, four days; read-out: EC50
[5] = test system: lung cancer (4 cell lines); assay: CellTiter-Glo Viability Assay, lung cancer; format: cell-based; conditions: Homo sapiens, inhibition of cancer cell proliferation
[6] = test system: colorectal cancer (6 cell lines); assay: CellTiter-Glo Viability Assay, colorectal cancer; format: cell-based; conditions: Homo sapiens, inhibition of cancer cell proliferation
[7] = test system: haematopoietic & lymphoid tumors (13 cell lines); assay: CellTiter-Glo Viability Assay, haematopoietic & lymphoid tumors; format: cell-based; conditions: Homo sapiens, inhibition of cancer cell proliferation
CLK2 = molecular target: T1, CLK2 (Homo sapiens, UniProt P49760); assay: CLK2 kinase activity assay (Z-lyte, Ser/Thr 6 peptide); format: biochemical; conditions: recombinant CLK2 kinase, ATP 60 μM; read-out: EC50
T1 construct: purchased Thermo Fisher (Life Technologies), Z'-LYTE Kinase Assay Kits
Method: All reactions were performed in duplicate.

[8] = BXPC-3, BxPC3 cell line, read-out: Pancreatic cancer, EC50 BxPC3
[9] = CAPAN-1, Capan1 cell line, read-out: Pancreatic cancer, EC50 Capan1
[10] = Capan-2, Capan2 cell line, read-out: Pancreatic cancer, EC50 Capan2
[11] = MIA PaCa-2 cell line, read-out: Pancreatic cancer, EC50 MIA PaCa-2
[12] = PANC 05.04 cell line, read-out: Pancreatic cancer, EC50 PANC 05.04
[13] = PANC-1 cell line, read-out: Pancreatic cancer, EC50 PANC-1
[14] = UPAFII cell line, read-out: Pancreatic cancer, EC50 UPAFII
[15] = DU-145, read-out: Prostate cancer EC50 Du-145
[16] = PC-3, PC3 cell line, inhibition of cancer cell proliferation, read-out: Prostate cancer EC50 PC3
[17] = 22Rv1 cell line, inhibition of cancer cell proliferation, read-out: Prostate cancer EC50 22Rv1
[18] = LNCap clone FGC cell line, inhibition of cancer cell proliferation, read-out: Prostate cancer EC50 LNCap clone FGC
[19] = VCaP (Sigma) cell line, inhibition of cancer cell proliferation, read-out: Prostate cancer EC50 VCaP (Sigma)
[20] = SNU-398, SNU398 cell line, read-out: Liver cancer, EC50 SNU398
[21] = HEPG2 cell line, read-out: Liver cancer, EC50 HEPG2
[22] = PLC/PRF/5 cell line, read-out: Liver cancer, EC50 PLC/PRF/5
[23] = A-427, A427 cell line, read-out: Lung cancer, EC50 (μM) A427
[24] = HCC78, HCC-78 cell line, read-out: Lung cancer, EC50 (μM) HCC-78
[25] = NCI-H460 cell line, read-out: Lung cancer, EC50 (μM) NCI-H460
[26] = NCI-H522 cell line, read-out: Lung cancer, EC50 (μM) NCI-H522
[27] = HCT-116, HCT116 cell line, read-out: Colorectal cancer, EC50 (μM) HCT116
[28] = HT-29, HT29 cell line, read-out: Colorectal cancer, EC50 (μM) HT29
[29] = SW-620, SW620 cell line, read-out: Colorectal cancer, EC50 (μM) SW620
[30] = DLD-1 cell line, read-out: Colorectal cancer, EC50 (μM) DLD-1
[31] = SW48 cell line, read-out: Colorectal cancer, EC50 (μM) SW48
[32] = SW480 cell line, read-out: Colorectal cancer, EC50 (μM) SW480
[33] = DND41, DND-41 cell line, read-out: Haematopoietic & Lymphoid tumors, EC50 (μM) DND-41
[34] = MV4-11, MV-4-11 cell line, read-out: Haematopoietic & Lymphoid tumors, EC50 (μM) MV-4-11
[35] = Rec1, REC-1 cell line, read-out: Haematopoietic & Lymphoid tumors, EC50 (μM) REC-1
[36] = SU-DHL-4, SUDHL4 cell line, read-out: Haematopoietic & Lymphoid tumors, EC50 (μM) SUDHL4
[37] = HL-60 cell line, read-out: Haematopoietic & Lymphoid tumors, EC50 (μM) HL-60
[38] = JM1 cell line, read-out: Haematopoietic & Lymphoid tumors, EC50 (μM) JM1
[39] = JURKAT, Clone E6-1 cell line, read-out: Haematopoietic & Lymphoid tumors, EC50 (μM) JURKAT, Clone E6-1
[40] = JeKo-1 cell line, read-out: Haematopoietic & Lymphoid tumors, EC50 (μM) JeKo-1
[41] = KASUMI-1 cell line, read-out: Haematopoietic & Lymphoid tumors, EC50 (μM) KASUMI-1
[42] = Loucy cell line, read-out: Haematopoietic & Lymphoid tumors, EC50 (μM) Loucy
[43] = MOLT-4 cell line, read-out: Haematopoietic & Lymphoid tumors, EC50 (μM) MOLT-4
[44] = TF-1 cell line, read-out: Haematopoietic & Lymphoid tumors, EC50 (μM) TF-1
[45] = TOLEDO cell line, read-out: Haematopoietic & Lymphoid tumors, EC50 (μM) TOLEDO

CLK3, sequence (P49761 whole entry): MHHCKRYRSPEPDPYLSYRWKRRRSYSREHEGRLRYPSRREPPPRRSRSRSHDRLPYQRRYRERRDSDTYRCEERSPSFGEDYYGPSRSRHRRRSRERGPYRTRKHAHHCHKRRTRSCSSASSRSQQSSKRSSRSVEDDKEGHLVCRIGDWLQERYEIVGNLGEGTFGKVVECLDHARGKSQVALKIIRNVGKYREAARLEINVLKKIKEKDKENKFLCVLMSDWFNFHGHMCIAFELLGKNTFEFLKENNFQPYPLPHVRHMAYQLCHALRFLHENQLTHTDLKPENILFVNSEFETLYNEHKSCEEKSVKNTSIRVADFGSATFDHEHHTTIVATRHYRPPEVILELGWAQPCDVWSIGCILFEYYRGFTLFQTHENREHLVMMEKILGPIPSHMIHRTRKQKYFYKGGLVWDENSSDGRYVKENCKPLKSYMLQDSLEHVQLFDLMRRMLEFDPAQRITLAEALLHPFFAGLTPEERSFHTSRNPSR
T1 sequence (P49760 whole entry): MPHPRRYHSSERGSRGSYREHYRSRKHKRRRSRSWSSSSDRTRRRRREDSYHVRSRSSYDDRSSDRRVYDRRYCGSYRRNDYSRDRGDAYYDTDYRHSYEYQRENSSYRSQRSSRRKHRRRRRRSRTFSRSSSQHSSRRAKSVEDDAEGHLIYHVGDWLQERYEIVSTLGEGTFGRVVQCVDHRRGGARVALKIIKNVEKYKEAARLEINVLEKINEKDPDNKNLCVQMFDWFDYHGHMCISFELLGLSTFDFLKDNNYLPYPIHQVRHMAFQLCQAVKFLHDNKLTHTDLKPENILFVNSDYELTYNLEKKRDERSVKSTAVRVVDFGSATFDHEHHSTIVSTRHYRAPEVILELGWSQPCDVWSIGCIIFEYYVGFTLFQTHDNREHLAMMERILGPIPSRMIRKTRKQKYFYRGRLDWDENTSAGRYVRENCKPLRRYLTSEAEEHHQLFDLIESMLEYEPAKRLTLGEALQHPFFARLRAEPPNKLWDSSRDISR

COc1ccc(NC(=O)c2n[nH]c3ccc(-c4cncc(CN5CCCCC5)c4)cc23)cn1 [Compound 59]
EC50 (all 50 cell lines): 434 nM
EC50 (CLK3): 61.1 nM
EC50 ([1]; PA-1, PA1 cell line, read-out: Ovarian cancer, EC50 (μM) PA1): 0.27 µM
EC50 ([1]; TOV112D, TOV-112D cell line, read-out: Ovarian cancer, EC50 (μM) TOV-112D): 0.264 µM
EC50 ([1]; OV-90 cell line, read-out: Ovarian cancer, EC50 (μM) OV-90): 0.936 µM
EC50 ([1]; OVCAR-3 cell line, read-out: Ovarian cancer, EC50 (μM) OVCAR-3): 0.1 µM
EC50 [2, 8]: 1050 nM
EC50 [2, 9]: 228 nM
EC50 [2, 10]: 55 nM
EC50 [2, 11]: 175 nM
EC50 [2, 12]: 226 nM
EC50 [2, 13]: 666 nM
EC50 [2, 14]: 282 nM
EC50 [3, 15]: 563 nM
EC50 [3, 16]: 394 nM
EC50 [3, 17]: 253 nM
EC50 [3, 18]: 553 nM
EC50 [3, 19]: 612 nM
EC50 [4, 20]: 161 nM
EC50 [4, 21]: 428 nM
EC50 [4, 22]: 1030 nM
EC50 (ZR-75-1): 653 nM
EC50 (DU4475): 178 nM
EC50 (T47D): 730 nM
EC50 (MCF7): 853 nM
EC50 (CAMA1): 345 nM
EC50 (MDA-MB-231-Luc): 636 nM
EC50 (HCC1599): 286 nM
EC50 (BT-549): 473 nM
EC50 [5, 23]: 0.443 µM
EC50 [5, 24]: 0.997 µM
EC50 [5, 25]: 0.32 µM
EC50 [5, 26]: 0.19 µM
EC50 [6, 27]: 0.193 µM
EC50 [6, 28]: 0.666 µM
EC50 [6, 29]: 0.187 µM
EC50 [6, 30]: 0.376 µM
EC50 [6, 31]: 0.132 µM
EC50 [6, 32]: 0.353 µM
EC50 [7, 33]: 0.529 µM
EC50 [7, 34]: 0.077 µM
EC50 [7, 35]: 0.133 µM
EC50 [7, 36]: 0.525 µM
EC50 [7, 37]: 1.24 µM
EC50 [7, 38]: 0.115 µM
EC50 [7, 39]: 1.02 µM
EC50 [7, 40]: 0.141 µM
EC50 [7, 41]: 0.157 µM
EC50 [7, 42]: 0.304 µM
EC50 [7, 43]: 0.689 µM
EC50 [7, 44]: 0.41 µM
EC50 [7, 45]: 0.121 µM

Cn1ncc(-c2ccc3cnc(NC(=O)c4cccc(CN5CCCC5)c4)cc3c2)c1CN1CCCCC1 [Compound 78]
EC50 (CLK2): 1.6 nM
EC50 (all 50 cell lines): 610 nM
EC50 (CLK3): 14.6 nM
EC50 [2, 8]: 1110 nM
EC50 [2, 9]: 627 nM
EC50 [2, 10]: 1040 nM
EC50 [2, 11]: 272 nM
EC50 [2, 12]: 818 nM
EC50 [2, 13]: 736 nM
EC50 [2, 14]: 381 nM
EC50 [3, 15]: 713 nM
EC50 [3, 16]: 674 nM
EC50 [3, 17]: 525 nM
EC50 [3, 18]: 966 nM
EC50 [3, 19]: 546 nM
EC50 [4, 20]: 132 nM
EC50 [4, 21]: 845 nM
EC50 [4, 22]: 1290 nM
EC50 (ZR-75-1): 711 nM
EC50 (DU4475): 381 nM
EC50 (T47D): 888 nM
EC50 (MCF7): 1420 nM
EC50 (CAMA1): 561 nM
EC50 (MDA-MB-231-Luc): 677 nM
EC50 (HCC1599): 512 nM
EC50 (BT-549): 655 nM
EC50 [5, 23]: 0.672 µM
EC50 [5, 24]: 1.1 µM
EC50 [5, 25]: 0.856 µM
EC50 [5, 26]: 0.395 µM
EC50 [6, 27]: 0.38 µM
EC50 [6, 28]: 0.674 µM
EC50 [6, 29]: 0.198 µM
EC50 [6, 30]: 0.499 µM
EC50 [6, 31]: 0.182 µM
EC50 [6, 32]: 0.404 µM
EC50 [7, 33]: 0.513 µM
EC50 [7, 34]: 0.099 µM
EC50 [7, 35]: 0.164 µM
EC50 [7, 36]: 0.62 µM
EC50 [7, 37]: 1.29 µM
EC50 [7, 38]: 0.177 µM
EC50 [7, 39]: 0.976 µM
EC50 [7, 40]: 0.228 µM
EC50 [7, 41]: 0.363 µM
EC50 [7, 42]: 0.522 µM
EC50 [7, 43]: 0.562 µM
EC50 [7, 44]: 0.897 µM
EC50 [7, 45]: 0.156 µM
